Measurements as given in patent US20240203290A1, “VITRO MODEL DEVICE FOR CORNEA BARRIER” (CFD Research Corporation, priority 2022, published 2024).

Experiments:
Type in all cases: cell-based
[1] = test system: corneal barrier of the microfluidic in vitro cornea device; test: Morphological observation of the chambers after trypan blue exposure; settings: trypan blue injected into TFEp channel at 3 μL/min for 4 min, incubated at 37° C. for 15 min; observed at any chamber
[2] = test system: corneal barrier of the microfluidic in vitro cornea device (epithelial, fibroblast, endothelial triculture); test: FSS permeability of the in vitro cornea device after trypan blue exposure; settings: trypan blue injected into TFEp channel at 3 μL/min for 4 min, incubated at 37° C. for 15 min; then FSS injected into TFEp channel
Protocol: (§1) In some embodiments, all channels of the device can be coated with human fibronectin to facilitate cellular attachment. For example, primary human corneal fibroblasts can be seeded on Day 0. Fibroblasts can be harvested, concentrated to 1×10^7 cells/mL and injected into the stromal chamber via a remote head syringe pump at 5 μL/min until cells are homogenously distributed. Devices can then be incubated at 37° C., 5% CO2 for 4 hours to allow for attachment. Media can be subsequently refreshed every 24 hours. Primary human corneal epithelial cells can be seeded into the TFEp circulation channel on Day 3. […]
(§2) Viability can be assessed on-chip as an endpoint for epithelial, fibroblast, and endothelial cells. Devices are prepared for viability quantitation by incubation with calcein AM and ethidium homodimer in PBS. After rinsing the cells with PBS, fluorescent images are taken via microscope, and the data was analyzed to determine cornea triculture viability (sec, FIG. 5A). […]
Following exposure, FSS can be injected into the TFEp channel and permeability assayed. […] Samples can be taken from cell-laden channels (individually or combined) and placed in a low volume, white walled […] plate for luminescence analysis using a plate reader. […] The increase in AK release in arbitrary luminescence units compares the toxic exposure of trypan blue to positive and negative controls. […]

[3] = test system: cells of the microfluidic in vitro cornea device; test: Cytotoxicity by adenylate kinase release (luminescence) from cell-laden channels; settings: trypan blue exposure; compared with positive control (lysis buffer) and negative control (media only)
Protocol: as §1, §2
Following exposure, FSS can be injected into the TFEp channel and permeability assayed. […] Samples can be taken from cell-laden channels (individually or combined) and placed in a low volume, white walled […] plate for luminescence analysis using a plate reader. […] The increase in AK release in arbitrary luminescence units compares the toxic exposure of trypan blue to positive and negative controls.

Question: For `Cc1cc(-c2ccc(/N=N/c3c(S(=O)(=O)O)cc4cc(S(=O)(=O)O)cc(N)c4c3O)c(C)c2)ccc1/N=N/c1c(S(=O)(=O)O)cc2cc(S(=O)(=O)O)cc(N)c2c1O` [trypan blue], which “Morphological effects of exposure” value [1] is on record?
Answer: Its value is “evidence of barrier degradation (e.g., cell death and detachment) and apoptosis”.

Question: And the “Permeability in trypan blue treated devices compared to controls” value [2]?
Answer: Its value is 10 fold.

Question: What about the “Increase in adenylate kinase release” value [3] of the same compound?
Answer: The value was 1.5 fold.
